Measurements as given in publication PMC11547576, “Identification of a New Promising BAG3 Modulator Featuring the Imidazopyridine Scaffold” (Molecules, 2024).

Experiments:
HaCat cells = test: MTT cell viability assay on HaCat healthy cells; type: cell-based; conditions: Homo sapiens, 72 h, seven concentrations (1 to 100 μM)
Protocol: Elevated expression levels of BAG3 are strongly associated with signaling pathways in various types of malignant cells; consequently, reducing the activity of this co-chaperone inhibits cell proliferation, triggers apoptosis, and induces cell cycle arrest. To assess the activity of compounds 10, 12, and 14, cytotoxicity assays were performed on HeLa cells, which were chosen for their tendency to overexpress BAG3 proteins. MTT assays were conducted by exposing HeLa cells to different concentrations of the compounds (25, 50, and 100 µM) for 72 h. Additionally, 10% DMSO was used as a positive control, while 0.1% DMSO served as a negative control. […] The next step involved the assessment of the cytotoxicity of the most promising candidate, 10, on healthy cells to determine its safety profile. To achieve this, MTT assays were conducted on HaCat cells over 72 h. […]
Cell viability was assessed by measuring mitochondrial metabolic activity using a colorimetric assay, which involves the reduction of 3-[4,5-dimethylthiazol-2,5-diphenyl-2H-tetrazolium bromide (MTT) to purple formazan. […] Absorbance was measured at 570 nm using a Multiskan™ GO Microplate Spectrophotometer (Thermo Fisher Scientific, Waltham, MA, USA,). […]

HeLa cells = test: Cell cycle and hypodiploid nuclei analysis by PI staining flow cytometry; type: cell-based, human; conditions: 72 h, all tested concentrations (50, 30, 20 µM)
Protocol: Given BAG3’s well-documented anti-apoptotic role, annexin V-FITC/PI staining was performed to evaluate the effects of compound 10 on cell apoptosis. […] Specifically, at 50 µM, 81.0 ± 3.89% of the cells were apoptotic (p < 0.001 vs. Ctrl); at 30 µM, 70.5 ± 4.56% were apoptotic (p < 0.01 vs. Ctrl); and at 20 µM, 51.5 ± 2.23% were apoptotic (p < 0.05 vs. Ctrl) (Figure 3A,B).
Hypodiploid nuclei were analyzed using PI staining by flow cytometry. HeLa cells (1 × 10^5 cells/well) were grown in 12-well plates and allowed to adhere for 24 h. Subsequently, the medium was replaced with fresh medium, and the cells were treated for 72 h with compound 10 at concentrations of 20, 30, and 50 µM, 0.1% (v/v) DMSO (negative control), and 10% (v/v) DMSO (positive control). Following treatment, the culture medium was replaced, and the cells were washed twice with PBS. The cells were then suspended in […] of a solution containing 50 mg/L PI, 0.1% (w/v) sodium citrate, and 0.1% Triton X-100. […] After incubation at 4 °C for 30 min in the dark, cell nuclei were analyzed using a Becton Dickinson FACS flow cytometer (Franklin Lakes, NJ, USA) with the Cell Quest program, and the DNA content of the nuclei was recorded. Cellular debris was excluded from the analysis by increasing the forward scatter threshold, and the percentages of cells in the hypodiploid region (sub-G0/G1), G1, S, and G2 regions were calculated. […]

caspase 3 = test: Caspase 3 determination by flow cytometry; type: cell-based, human; conditions: HeLa cells, 72 h, 50, 30 and 20 µM, vs control
Protocol: Furthermore, we investigated the expressions of caspases, key mediators of programmed cell death, in HeLa cells treated with compound 10 at the same concentrations used in the previous assays. […] To further confirm the pro-apoptotic mechanism induced by compound 10, Western blotting was performed to measure the expression and cleavage of caspase 3 [38, 39].
HeLa cells were seeded into 6-well plates (2.5 × 10^5 cells/well) and allowed to adhere for 24 h. The cells were then treated for 72 h with compound 10 at concentrations of 20, 30, and 50 µM, as well as with 0.1% DMSO negative (control), to assess caspase 3 and caspase 9 levels. After treatment, cells were collected, washed with PBS, and incubated at 4 °C first with a fixing buffer (containing 1% formaldehyde and 1% FBS in PBS) for 20 min, followed by permeabilization with fix perm solution (fixing buffer containing 0.1% Triton X-100) for 30 min. Next, the cells were incubated with anti-caspase 3 (1:500; SC-7272, Santa Cruz, CA, USA) and anti-caspase 9 (1:50; BS-0049R, Bioss Antibodies, Woburn, MA, USA) antibodies for 30 min at 4 °C. […] Cell fluorescence was then evaluated using a fluorescence-activated cell sorter (FACSscan, Becton Dickinson, Milan, Italy) and analyzed with Cell Quest software (4.0, Becton Dickinson, North Ryde, Australia). […]

CC(C)Nc1c(-c2ccccc2Br)nc2ccc(Cl)cn12 [Compound 10, 2-(2-bromophenyl)-6-chloro-N-isopropylimidazo[1,2-a]pyridin-3-amine]
IC50 (HaCat cells): 81.3 ± 4.83 µM | cell cycle arrest (HeLa cells): consistent and significant cell cycle arrest | hypodiploid nuclei (HeLa cells): increase in hypodiploid nuclei | activation of caspase 3 (caspase 3): pronounced, dose-dependent activation
